Laboratory results: patent US7988957B2, “Gene introduction efficiency enhancer” (Genesis Healthcare Corp., priority 2003, dated 2011)

Assays:
[1] = test system: human glioma cell line U251MG; assay: AAV-vector-mediated EGFP transgene expression, fluorescence microscope; format: cell-based; details: 24 hours
Description: (§1) FK228 which had been isolated and purified through the method described in Japanese Patent Publication (kokoku) No. 7-64872 was employed as a histone deacetylase inhibitor. The FK228 was dissolved in ethanol for storage. When in use, the FK228 was diluted with a medium, to thereby regulate the FK228 concentration to fall within a range of 0 to 100 ng/mL.
An AAV vector genome plasmid and a helper plasmid were introduced into 293 cells through the calcium phosphate method, and AAV vectors (types 1 to 5) which express EGFP (enhanced green fluorescent protein) under the control of a cytomegalovirus (CMV) promoter were prepared. Specifically, the AAV vector preparation was performed through the method described in the following references. • Reference 1: Methods 2002; 8: 237-247 (described above) • Reference 2: Methods Enzymol 2002; 346: 378-393 (described above) • 3. Cells and Cell Culture (1) Human Glioma Cell Line; U251MG, U87MG
U251MG was obtained from JCRB Cell Bank, National Institute of Health Sciences. […]
(§2) The effect of FK228 on enhancing expression of a transgene was evaluated with glioma cells. Type-2 AAV vector (1×10^4 genome copies/cell) and FK228 (0, 0.01, 0.1, 1, 10, or 100 ng/mL) were added to a culture supernatant of the human glioma cell line U251MG, and 24 hours later, expression of EGFP was observed under a fluorescence microscope.

[2] = test system: subcultured human glioma cells (prepared from an operative specimen); assay: AAV-vector-mediated EGFP transgene expression; format: cell-based; details: FK228 1 ng/mL
Description: as §1
(§3) An AAV vector genome plasmid and a helper plasmid were introduced into 293 cells through the calcium phosphate method, and AAV vectors (types 1 to 5) which express EGFP (enhanced green fluorescent protein) under the control of a cytomegalovirus (CMV) promoter were prepared. […]
as §2
(§4) Similar to the case of U251MG, in the cases of the head and neck cancer cell line HEp-2 and the subcultured human glioma cells (prepared from an operative specimen), the effect of FK228 in enhancing AAV-vector-mediated gene transfer was evaluated.

[3] = test system: head and neck cancer cell line HEp-2; assay: AAV-vector-mediated EGFP transgene expression; format: cell-based, human; details: FK228 1 ng/mL
Description: as §1, §3, §2, §4

U251MG [4] = assay: Percent occurrence of EGFP-positive cells by FACS analysis; format: cell-based, human; details: FK228 1 ng/mL, type-2 AAV vector, 24 hours, FIG. 1B
Description: (§5) Type-2 AAV vector (1×10^4 genome copies/cell) and FK228 (0, 0.01, 0.1, or 1 ng/mL) were added to a culture supernatant of U251MG, and 24 hours later, the percent occurrence of cells positive for CD51 (integrin) or EGFP was calculated through FACS analysis. The FACS analysis was performed through a customary method by use of FACSCan (Becton Dickinson, San Jose, Calif.) and CellQuest software (Becton Dickinson, San Jose, Calif.).
(§6) PE-labeled anti-CD51 monoclonal antibody: 13C2 was obtained from Cymbus Biotechnology Ltd., Chandlers Ford, UK. Dead cells were detected by means of 7-amino-actinomycin D (Via-Probe; Pharmingen, San Diego, Calif.).
(§7) Cells were washed with a FACS buffer (PBS containing 5% FBS and 0.05% sodium azide), and then incubated with the antibody on ice for 30 minutes. Fluorescences attributed to EGFP, PE, and Via-Probe were detected by FL1, FL2, and FL3, respectively. Cells negative for Via-Probe; i.e., viable cells, were employed for measuring expression of EGFP and/or CD51.

U251MG [5] = assay: Number of viral genome copies taken into cells, real-time PCR; format: cell-based, human; details: FK228 1 ng/mL
Description: Type-2 AAV vector (1×10^4 genome copies/cell) and FK228 (1 ng/mL) were added to a culture supernatant of U251MG, and the number of viral genome copies taken into cells was semi-quantified by means of real-time PCR (ABI, Prism 7700; QIAGEN, SYBR Green PCR kit QuantiTect) (performed through the method according to Mol. Ther. Aug. 6, 2002 (2): 272-278). After U251MG cells were infected with the type-2 AAV vector, the number of intracellular genome copies was measured in a time-course manner (0, 2, 4, 12, and 24 hours).

CD51 (integrin) = assay: Percent occurrence of CD51 (integrin)-positive cells by FACS analysis; format: cell-based, human; details: FK228 0, 0.01, 0.1 or 1 ng/mL; 24 hours; U251MG; FIG. 1A
Description: as §5, §6, §7

With `C/C=C1\NC(=O)[C@H]2CSSCC/C=C/[C@H](CC(=O)N[C@H](C(C)C)C(=O)N2)OC(=O)[C@H](C(C)C)NC1=O` [FK228] as the compound, how does the “EGFP expression enhancing effect” value ([1]; FK228 at 1 ng/mL or more, type-2 AAV vector) read?
Its value is “remarkable EGFP expression enhancing effect”.

And the “expression of EGFP” value ([1]; Type-2 AAV vector 1×10^4 genome copies/cell, FK228 0, 0.01, 0.1, 1, 10 or 100 ng/mL)?
Its value is “enhanced in an FK228-dose-dependent manner”.

What about the EGFP expression [2] of the same compound?
The EGFP expression was “enhanced”.

And the EGFP expression [3]?
Its EGFP expression is “enhanced”.

And the “percent occurrence of EGFP-positive cells” value (U251MG [4])?
The value was “sharply increased”.

What about the “genome copy number in the FK228-treated group” value (U251MG [5]; 24 hours after the infection) of the same compound?
Its value is “slight increase”.

What about the “genome copy number, FK228-treated group versus control group (only a solvent)” value (U251MG [5]; type-2 AAV vector, 0, 2, 4, 12 and 24 hours, FIG. 2) of the same compound?
Its value is “No significant difference”.

And the “percent occurrence of integrin-positive cells” value (CD51 (integrin))?
The value was “gradual increase”.
